The source made the active and inactive calls. No rule for the calls is given here.
Target: Serine/threonine-protein kinase mTOR (Homo sapiens) (UniProt P42345)
Experiment: binders of mTOR FRB domain, biophysical, NMR (AID 1648)
Conditions: NMR binding to FRB domain, chemical shift

Serine/threonine-protein kinase mTOR (Homo sapiens), sequence (P42345 2015-2114): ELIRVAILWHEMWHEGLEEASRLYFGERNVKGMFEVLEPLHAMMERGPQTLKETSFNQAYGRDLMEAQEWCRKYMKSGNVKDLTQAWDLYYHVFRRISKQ

| SMILES | Kd |
| --- | --- |
| O=C(O)c1ccc2nccnc2c1 | > 4 mM (inactive) |
| Cc1cc(C)n(S(=O)(=O)c2cc(C)c(C)cc2C)n1 | > 4 mM (inactive) |
| O=S1(=O)CCC(NC(=S)N2CCCCC2)C1 (stereo not given) | > 4 mM (inactive) |
| O=C(c1cnsn1)N1CCN(c2ccccc2)CC1 | > 4 mM (inactive) |
| Cn1cnc2c(=S)[nH]c(=O)n(Cc3ccccc3)c21 | > 4 mM (inactive) |
| COc1ccccc1-c1noc(-c2ccco2)n1 | > 4 mM (inactive) |
| CC(=O)Nc1ccc(C)cc1NC(C)=O | > 4 mM (inactive) |
| COc1cccc(NC(=O)c2ocnc2C)c1 | > 4 mM (inactive) |
| O=C(O)CNC(=O)c1ccccc1Cl | > 4 mM (inactive) |
| O[C@H]1C=C2CCN3Cc4cc5c(cc4C(C23)[C@@H]1O)OCO5 (stereo not given in full) | > 4 mM (inactive) |
| O=C(Nc1cccnc1)c1ccc(Br)s1 | > 4 mM (inactive) |
| COc1ccc(-c2coc3cc(O)ccc3c2=O)cc1 | > 4 mM (inactive) |
| Cc1nc2ccccc2c(=O)n1N1C(=O)CCCC1=O | > 4 mM (inactive) |
| NC(=O)C(=O)Nc1nc(-c2ccccc2)cs1 | > 4 mM (inactive) |
| CC(=O)c1cccc(NS(=O)(=O)N(C)C)c1 | > 4 mM (inactive) |
| COc1ccc(C(=O)NC2=NCCS2)cc1OC | > 4 mM (inactive) |
| CC(=O)Nc1ccc(S(=O)(=O)NCC2CCCO2)cc1 (stereo not given) | > 4 mM (inactive) |
| CN1CCN(c2ncnc3nc[nH]c23)CC1 | > 4 mM (inactive) |
| COc1ccc(Cl)cc1NC(=O)C(N)=O | > 4 mM (inactive) |
| S=C(CN1CCCC1=S)N1CCOCC1 | > 4 mM (inactive) |
| Cn1cccc1C(=S)N1CCOCC1 | > 4 mM (inactive) |
| O=C(O)c1ccc2sccc2c1 | > 4 mM (inactive) |
| O=C(NCc1cccc(Cl)c1)c1cccnc1 | > 4 mM (inactive) |
| COc1cc(/C=C2\SC(=S)NC2=O)ccc1O | > 4 mM (inactive) |

| SMILES | Kd |
| --- | --- |
| Cc1noc(C)c1C(=O)Nc1sc(C)c(C)c1C#N | > 4 mM (inactive) |
| COC(=O)[C@@H]1C(O)CC[C@H]2CN3CCc4c([nH]c5ccccc45)[C@@H]3C[C@@H]21 (stereo not given in full) | > 4 mM (inactive) |
| Cc1c(C(=O)Nc2ccccc2)sc(N)c1C(N)=O | > 4 mM (inactive) |
| CCOC(=O)c1c(C)n([O-])c2ccccc2[n+]1=O | > 4 mM (inactive) |
| O=C(Nc1ccon1)c1cc2c(s1)CCCC2 | > 4 mM (inactive) |
| CN1CCC(NC(=S)NC2CC2)CC1 | > 4 mM (inactive) |
| Cc1onc(-c2ccccc2)c1C(=O)O | > 4 mM (inactive) |
| CCCCCC1C(=O)CCC1CC(=O)O (stereo not given) | > 4 mM (inactive) |
| Cc1c(C(=O)Nc2ccccn2)oc2ccccc12 | > 4 mM (inactive) |
| Nc1ncccc1OCc1ccccc1 | > 4 mM (inactive) |
| NCC1CN(Cc2ccccc2)CCO1 (stereo not given) | > 4 mM (inactive) |
| CC(=O)OC1CCC2(C)C(=CC=C3C2CCC2(C)C3CCC2C(C)/C=C/C(C)C(C)C)C1(C)C (stereo not given) | > 4 mM (inactive) |
| Nc1ncnc2c1ncn2CCN1CCOCC1 | > 4 mM (inactive) |
| CC(C)CNc1cc(=O)n(C)c(=O)n1C | > 4 mM (inactive) |
| Cc1cc(N2CCN(C)CC2)ncn1 | > 4 mM (inactive) |
| CCS(=O)(=O)N1CCN(c2ccccc2F)CC1 | > 4 mM (inactive) |
| Nc1n[nH]c(=S)n1-c1ccccc1 | > 4 mM (inactive) |
| O=C(O)CCCN1CNC(=S)NC1 | > 4 mM (inactive) |
| CCNC(CC(=O)Nc1cccc([N+](=O)[O-])c1)C(=O)O (stereo not given) | > 4 mM (inactive) |
| CCNC(=O)CC1Nc2ccccc2NC1=O (stereo not given) | > 4 mM (inactive) |
| O=C(CSc1ccnc(=O)[nH]1)NCc1ccco1 | > 4 mM (inactive) |
| CC(C)CCCC(C)C1CCC2C3C[C@@H](O)[C@@]4(O)C[C@@H](O)CC[C@]4(C)C3CC[C@]12C (stereo not given in full) | > 4 mM (inactive) |
| C[C@@H](N)[C@@H](O)c1ccccc1 | > 4 mM (inactive) |
| Cc1cc(C)nc(Nc2n[nH]c(Cc3ccccc3)n2)n1 | > 4 mM (inactive) |

| SMILES | Kd |
| --- | --- |
| CC1(C)Oc2ccc3ccc(=O)oc3c2CC1O (stereo not given) | > 4 mM (inactive) |
| NC(=O)C1CCN(c2ccc(Cl)nn2)CC1 | > 4 mM (inactive) |
| CC(C)Nc1ncnc2c1nnn2C | > 4 mM (inactive) |
| CCC1=Nc2ccccc2-c2nnc(SC)nc2O1 | > 4 mM (inactive) |
| COc1ccc(C(=O)NNC(=S)NC(C)=O)cc1 | > 4 mM (inactive) |
| c1ccc(-n2nnnc2Oc2cccc3cccnc23)cc1 | > 4 mM (inactive) |
| COc1ccc(C)cc1S(N)(=O)=O | > 4 mM (inactive) |
| Cc1cc(C)n2nc(Cc3ccccc3)nc2n1 | > 4 mM (inactive) |
| COc1cc(O)ccc1C(C)=O | > 4 mM (inactive) |
| COc1cc([C@@H]2c3cc4c(cc3[C@H](O)[C@H]3COC(=O)[C@@H]23)OCO4)cc(OC)c1OC | > 4 mM (inactive) |
| Cc1[nH]n(-c2ccccc2)c(=O)c1[N+](=O)[O-] | > 4 mM (inactive) |
| Cc1c(N=Cc2ccc[nH]2)c(=O)n(-c2ccccc2)n1C | > 4 mM (inactive) |
| Cc1sc2nc(SC3CCOC3=O)[nH]c(=O)c2c1C (stereo not given) | > 4 mM (inactive) |
| COc1c2ccccc2nc2occc12 | > 4 mM (inactive) |
| O=C(O)CN1C(=O)c2ccc(C(=O)O)cc2C1=O | > 4 mM (inactive) |
| Cc1ccc2cccc(OC(=O)N3CCCC3)c2n1 | > 4 mM (inactive) |
| N#CC(O[C@@H]1O[C@H](CO[C@@H]2O[C@H](CO)[C@@H](O)[C@H](O)[C@H]2O)[C@@H](O)[C@H](O)[C@H]1O)c1ccccc1 (stereo not given in full) | > 4 mM (inactive) |
| COc1cc(OC)c(-c2c(OC)cc(OC)cc2OC)c(OC)c1 | > 4 mM (inactive) |
| CC(C)NS(=O)(=O)c1ccc(N)cc1 | > 4 mM (inactive) |
| Cn1ncc(N2CCOCC2)c(Cl)c1=O | > 4 mM (inactive) |
| COc1ccc2c(c1)OCC(Cc1ccc(OC)c(O)c1)C2=O (stereo not given) | > 4 mM (inactive) |
| Nc1cc(-c2ccco2)[nH]n1 | > 4 mM (inactive) |
| CC1(C)CN=C(Nc2nc3ccccc3s2)S1 | > 4 mM (inactive) |
| O=C1CSC(=Nc2ccc(Cl)cc2)N1 | > 4 mM (inactive) |

| SMILES | Kd |
| --- | --- |
| CC1=[N+]([O-])C2(N)CCc3c(no[n+]3[O-])C2(O)C1 (stereo not given) | > 4 mM (inactive) |
| Cc1ccccc1-n1c(-c2cccnc2)n[nH]c1=S | > 4 mM (inactive) |
| COc1c2c(cc3cc[n+](C)cc13)OCO2 | > 4 mM (inactive) |
| O=C(Nc1ccc2c(c1)OCO2)c1cccc(F)c1 | > 4 mM (inactive) |
| CCN1CCC2(CC1)CC1CC3C=CC1(CN2C(C)=O)O3 (stereo not given) | > 4 mM (inactive) |
| CC(=O)Nc1nc(-c2cccs2)cs1 | > 4 mM (inactive) |
| CC1(C)C=Cc2cc3ccc(=O)oc3cc2O1 | > 4 mM (inactive) |
| CSc1ccc(C2NC(=O)CCC2[N+](=O)[O-])cc1 (stereo not given) | > 4 mM (inactive) |
| O=C1C2C3C=CC(C3)C2C(=O)N1CCO (stereo not given) | > 4 mM (inactive) |
| Nc1nc(SCC(=O)c2ccc([N+](=O)[O-])cc2)n[nH]1 | > 4 mM (inactive) |
| O=C(/C=C/c1ccc(O)c(O)c1)O[C@@H]1C[C@](O)(C(=O)O)C[C@@H](O)[C@H]1O | > 4 mM (inactive) |
| CC(=O)c1ccc(NC(=S)N2CCC(O)CC2)cc1 | > 4 mM (inactive) |
| O=c1cc(O)n(-c2ccc(F)cc2)c(=S)[nH]1 | > 4 mM (inactive) |
| Cc1nc2ccccc2c(=O)n1NC(=O)Nc1ccccc1 | > 4 mM (inactive) |
| O=C(CC1NCCNC1=O)Nc1ccccc1 (stereo not given) | > 4 mM (inactive) |
| Cc1nnc(N2CCc3ccccc3C2)[nH]c1=O | > 4 mM (inactive) |
| Nc1cccc(CC(=S)N2CCOCC2)c1 | > 4 mM (inactive) |
| CNC(=O)c1cccc(NC(=S)NC)c1 | > 4 mM (inactive) |
| C=CCn1c(-c2ccc(O)cc2)n[nH]c1=S | > 4 mM (inactive) |
| Nc1ncnc(NCCCO)c1[N+](=O)[O-] | > 4 mM (inactive) |
| O=C(Nc1ccccn1)c1cc(-n2cnnc2)ccc1Cl | > 4 mM (inactive) |
| C[n+]1ccn(C/C(N)=N/O)c1 | > 4 mM (inactive) |
| CCCCCC/C=C\CCCCCCCc1cccc(O)c1C(=O)O | > 4 mM (inactive) |
| O=C(OCc1c(Cl)cccc1Cl)c1cnccn1 | > 4 mM (inactive) |

| SMILES | Kd |
| --- | --- |
| CCOC(=O)c1csc(C2COc3ccccc3O2)n1 (stereo not given) | > 4 mM (inactive) |
| CNc1nnc(Cc2csc(N)n2)s1 | > 4 mM (inactive) |
| N#Cc1c(N)c(C(=O)c2ccccc2)n2c1CCC2 | > 4 mM (inactive) |
| O=c1[nH]c(=O)c2[nH]cnc2[nH]1 | > 4 mM (inactive) |
| Cc1nn(CC(=O)Nc2ccccc2)c(=O)c2ccccc12 | > 4 mM (inactive) |
| CC(=O)C1CCC2C3CCC4C[C@H](O)CCC4(C)C3C[C@H](O)C12C (stereo not given in full) | > 4 mM (inactive) |
| O=S1(=O)CCC(Nc2ccccc2)C1 (stereo not given) | > 4 mM (inactive) |
| O=C1CCCN1C(=O)c1ccc(F)cc1 | > 4 mM (inactive) |
| CC(=O)Nc1ccc2c(C)cc(=O)[nH]c2c1 | > 4 mM (inactive) |
| O=C(O)C1=C[C@@H](O)[C@@H](O)[C@H](O)C1 | > 4 mM (inactive) |
| Cc1ccc(SCc2nc(-c3ccncc3)no2)cc1 | > 4 mM (inactive) |
| COC(=O)CCSCC(=O)Nc1nnc(C)s1 | > 4 mM (inactive) |
| COc1cc2c(c(OC)c1OC)-c1ccc(O)c(=O)cc1[C@@H](NC(C)=O)CC2 | > 4 mM (inactive) |
| OCC(O)C(O)C(O)CO (stereo not given) | > 4 mM (inactive) |
| COC(=O)c1cccc2cc[nH]c12 | > 4 mM (inactive) |
| OCc1cc(F)cc2c1OCOC2 | > 4 mM (inactive) |
| OCc1ccc(-c2cccs2)s1 | > 4 mM (inactive) |
| N#Cc1nc(N2CCCCC2)nc(N2CCOCC2)n1 | > 4 mM (inactive) |
| CSc1ccccc1NC(=O)c1c(C)noc1C | > 4 mM (inactive) |
| CC1CN(Cc2ccccn2)CCC1=O (stereo not given) | > 4 mM (inactive) |
| Cc1ccc(N2C(=O)CC(Sc3ncn[nH]3)C2=O)cc1 (stereo not given) | > 4 mM (inactive) |
| O=C(O)CSc1nnc(-c2cccs2)o1 | > 4 mM (inactive) |
| O=C(Oc1ccc2c(c1)OCC2=O)c1ccccc1 | > 4 mM (inactive) |
| Cc1ncc(CC(=O)O)s1 | > 4 mM (inactive) |

— PubChem BioAssay AID1648 (Sanford-Burnham Center for Chemical Genomics, 2009)
